Key:
[1] = molecular target: T1, human Cystic Fibrosis Transmembrane Conductance Regulator (CFTR) harboring the ΔF508 mutation (Homo sapiens, UniProt P13569, DEL508-508); experiment: H441 cell Emax and EC50: HRP-tagged ΔF508-CFTR cell-surface luminescence assay; assay type: cell-based; conditions: H441 cells expressing HRP-tagged ΔF508-CFTR, 27° C. for two nights; for EC50: 15-point dose-response; for Emax: NCI-H441, % of maximum VX809 signal
T1 construct: expressed in transfected cells; host or cells: H441 carcinoma cell line (G418 selection)
From the text: Example 36: H441 Cell Emax and EC50
Two cell lines were used, the H441 carcinoma line and the CFHBE41o− (41o−) human bronchial epithelial line. Both cell lines expressed human Cystic Fibrosis Transmembrane Conductance Regulator (CFTR) harboring the ΔF508 mutation and with an in-frame fusion in CFTR extracellular loop 4 of Horse Radish Peroxidase (HRP) under control of the CMV promoter. In the presence of the HRP tag, ΔF508-CFTR transported to the cell surface was detectable upon addition of an HRP substrate (Luminata Forte). Both cell types were cultivated at 37° C. with CO2.
For both cell types, the medium was changed every other day unless the culture was at low % confluence. Cells were used for the assays at ˜75% confluence.
DMSO/Compound Dilutions Plate for 15-Point Dose-Response Testing
To a polypropylene (PP) 384-well plate, 15 μls DMSO was added to all wells in columns 1-22 and 24 (low Control). 15 μls of 260 μM VX809 (Lumacaftor), Selleckchem S1565, was added to column 23 wells (high Control). 15 μls of 10 mM test compound or VX809 (control) were added to wells of row A. Serial dilutions of Row A compound were performed 2×15 μls in rows A through 0 (15-point).
A PP, 384-well plate containing the appropriate cell culture medium was prepared for each assay plate with 100 μls per well. For the doxycycline-induced 41o− cells, doxycycline for both the assay plate and the medium dilution plate was added at 0.0005 mg/ml to the medium.
Both cell lines were plated for the assay at 30 μls per 384-well at 3.4×10^e5 cells per ml (˜10K cells/well). H441 cells were plated on opaque, white, Corning plate 3704. 41o− cells were plated on collagen-coated opaque, white, Corning plate 356665. For 41o− cells, doxycycline was added to the medium.
Compound Addition/Assay Incubation
Using FX (Beckman) protocol, 10 μls diluted compound or medium was added per well to the Assay Plate as: 2 μls DMSO Dilution plate well is diluted in 100 μls of the Medium Dilution Plate well, mixed, and 10 μls is transferred to the Assay Plate.
The final assay dilution series is 24.5, 12.3, 6.1, 3.1, 1.5, 0.8, 0.4, 0.2, 0.1, 0.05, 0.02, 0.01, 0.006, 0.003, 0.001 and 0 μM. The 41o− assay plates were incubated at 37° C. w/CO2, the H441 assay plates were incubated at 27° C. w/CO2, each overnight for two nights.
Assay Result Determination
After being brought to room temperature, the assay plate liquid was removed. 30 uls of Luminata Forte (Millipore ELLUF0100) was added per well and incubated at room temperature for 10 min. The plates were then read on a Topcount, protocol LumiMatti (CPS, luminescence). The data was analyzed for % of maximum, maximum VX809 signal, and EC50 using Pearl and SPEED tools.

[2] = molecular target: T2, CFTR (ΔF508 homozygous CF-HBE cells) (Homo sapiens, UniProt P13569, DEL508-508); experiment: TECC24 AUC fold over DMSO @10 uM: CFTR-mediated transepithelial chloride transport in primary CF-HBE cells; assay type: cell-based; conditions: 10 μM test agent, 48 hours, forskolin-stimulated IEQ AUC divided by vehicle AUC
T2 construct: Primary human bronchial epithelial cells from a ΔF508 homozygous CF donor; host or cells: primary CF-HBE cells (ΔF508/ΔF508 donor)
Protocol: Example 37: TECC24 AUC Fold Over DMSO @10 uM
The effects of a test agent on CFTR-mediated transepithelial chloride transport was measured using TECC24 recording analysis. Test agents were solubilized in DMSO. Solubilized test agents were mixed with incubation medium containing DMEM/F12, Ultroser G (2%; Crescent Chemical, catalog #67042), Hyclone Fetal Clone 11(2%; GE Healthcare, catalog #SH30066.02), bovine brain extract (0.25%; Lonza, catalog #CC-4098), insulin (2.5 μg/mL), IL-13 (10 ng/mL), hydrocortisone (20 nM), transferrin (2.5 μg/mL), triiodothyronine (500 nM), ethanolamine (250 nM), epinephrine (1.5 μM), phosphoethanolamine (250 nM), and retinoic acid (10 nM). Primary human bronchial epithelial cells from a ΔF508 homozygous CF donor (CF-HBE cells; from University of North Carolina Cystic Fibrosis Tissue Procurement Center), grown on Transwell HTS 24-well cell culture inserts (Costar, catalog #3378), were exposed to test agents or controls dissolved in incubation medium. The CF-HBE cells were cultured at 36.5° C. for 48 hours before TECC24 recordings were performed in the presence or absence of test agent, a positive control or vehicle (DMSO).
Following incubation, the transwell cell culture inserts containing the test agent or control-treated CF-HBE cells were loaded onto a TECC24 apparatus (TECC v7 or MTECC v2; EP Design) to record the transepithelial voltage (VT) and resistance (TEER) using 4 AgCl electrodes per well configured in current-clamp mode. The apical and basolateral bath solutions both contained (in mM) 140 NaCl, 5 KCl, 2 CaCl2, 1 MgCl2, 10 Hepes, and 10 glucose (adjusted to pH 7.4 with NaOH). To inhibit basal Na+ absorption, the ENaC inhibitor benzamil (10 μM) was added to the bath. Then, the adenylate cyclase activator, forskolin (10 μM), was added to the bath to activate CFTR. The forskolin-stimulated Cl— transport was halted by addition of CFTR inhibitor-172 (20 μM) to the bath at the end of the experiment to confirm specificity. VT and TEER recordings were digitally acquired at routine intervals using TECC or MTECC software (EP Design). VT and TEER were transformed into equivalent transepithelial Cl-current (IEQ), and the Area Under the Curve (AUC) of the IEQ time course between forskolin and CFTR inhibitor-172 addition is generated using Excel (Microsoft). Efficacy is expressed as the ratio of the test agent AUC divided by vehicle AUC. EC50s based on AUC are generated using the non-linear regression log(agonist) vs. response function in Prism software (GraphPad) with Hill Slope fixed=1.
If a test agent increased the AUC of the forskolin-stimulated IEQ relative to vehicle in CF-HBE cells, and this increase was inhibited by CFTR inhibitor-172, then the test agent was considered a CFTR corrector.

T2 sequence (P13569 with tags, fused parts or gaps DEL508-508): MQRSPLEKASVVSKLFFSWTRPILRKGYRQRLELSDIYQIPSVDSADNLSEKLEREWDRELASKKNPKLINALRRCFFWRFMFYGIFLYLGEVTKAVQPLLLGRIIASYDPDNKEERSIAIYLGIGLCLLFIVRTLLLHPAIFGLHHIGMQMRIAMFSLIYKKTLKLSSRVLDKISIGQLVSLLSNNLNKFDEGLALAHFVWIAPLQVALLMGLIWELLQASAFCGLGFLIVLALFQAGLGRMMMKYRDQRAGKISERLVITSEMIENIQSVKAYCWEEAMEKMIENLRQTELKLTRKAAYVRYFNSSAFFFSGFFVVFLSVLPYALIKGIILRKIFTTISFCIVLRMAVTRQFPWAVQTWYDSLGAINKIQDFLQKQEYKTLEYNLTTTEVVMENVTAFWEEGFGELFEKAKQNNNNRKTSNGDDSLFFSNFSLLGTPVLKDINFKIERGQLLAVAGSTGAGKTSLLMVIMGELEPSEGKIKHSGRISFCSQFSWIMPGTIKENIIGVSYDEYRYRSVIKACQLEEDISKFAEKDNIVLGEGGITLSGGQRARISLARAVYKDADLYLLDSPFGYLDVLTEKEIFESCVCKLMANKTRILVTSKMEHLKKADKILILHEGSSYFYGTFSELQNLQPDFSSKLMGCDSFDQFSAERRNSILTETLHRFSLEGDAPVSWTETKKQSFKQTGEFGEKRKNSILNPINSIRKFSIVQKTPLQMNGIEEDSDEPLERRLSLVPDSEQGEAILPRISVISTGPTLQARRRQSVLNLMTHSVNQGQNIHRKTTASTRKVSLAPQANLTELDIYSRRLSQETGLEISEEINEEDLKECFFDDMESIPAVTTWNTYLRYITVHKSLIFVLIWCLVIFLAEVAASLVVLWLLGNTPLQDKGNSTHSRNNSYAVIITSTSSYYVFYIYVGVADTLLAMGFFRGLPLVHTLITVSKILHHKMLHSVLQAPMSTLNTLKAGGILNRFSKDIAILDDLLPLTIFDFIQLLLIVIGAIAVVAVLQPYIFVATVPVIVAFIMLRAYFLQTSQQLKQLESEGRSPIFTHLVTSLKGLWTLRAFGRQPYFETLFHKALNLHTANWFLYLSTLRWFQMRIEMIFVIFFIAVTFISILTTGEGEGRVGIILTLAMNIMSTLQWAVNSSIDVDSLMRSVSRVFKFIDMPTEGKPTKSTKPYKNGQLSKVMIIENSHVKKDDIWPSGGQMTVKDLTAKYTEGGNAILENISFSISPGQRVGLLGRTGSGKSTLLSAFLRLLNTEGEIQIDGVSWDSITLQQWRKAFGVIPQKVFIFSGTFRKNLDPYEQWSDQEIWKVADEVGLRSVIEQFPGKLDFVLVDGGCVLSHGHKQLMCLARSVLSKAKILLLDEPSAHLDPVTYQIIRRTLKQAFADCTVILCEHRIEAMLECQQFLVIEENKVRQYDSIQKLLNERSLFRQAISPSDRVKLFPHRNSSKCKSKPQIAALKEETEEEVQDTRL
T1 sequence (P13569 with tags, fused parts or gaps DEL508-508): as above

Row | SMILES | EC50 [1] | Emax [1] | TECC24 AUC fold over DMSO [2]
1 | CCC(C)(C)[C@H](NC(=O)c1ccc2cc(C)sc2c1OCc1ccc(C(F)(F)F)cc1)C(=O)O [Compound 33-19, (2S)-3,3-dimethyl-2-(2-methyl-7-((4-(trifluoromethyl)benzyl)oxy)-benzo[b]thiophene-6-carboxamido)pentanoic acid] | 0.427 µM | 255% | A (“A” refers to AUC @10 μM > 6)
2 | CC(C)(c1ccccc1)C(NC(=O)c1ccc2sccc2c1OCc1ccc(SC(F)(F)F)cc1)C(=O)O (stereo not drawn) [Compound 32-5, 3-methyl-3-phenyl-2-(4-((4-((trifluoromethyl)thio)benzyl)oxy)-benzo[b]thiophene-5-carboxamido)butanoic acid] | 0.496 µM | 93.5% | C (“C” refers to AUC @10 μM < 4)
3 | CCC(C)(C)[C@H](NC(=O)c1ccc2sc(C)cc2c1OCc1ccc(OC(F)(F)F)cc1)C(=O)O [Compound 33-30, (2S)-3,3-dimethyl-2-(2-methyl-4-((4-(trifluoromethoxy)benzyl)oxy)-benzo[b]thiophene-5-carboxamido)pentanoic acid] | 0.102 µM | 263% | A (“A” refers to AUC @10 μM > 6)
4 | CCC(C)(C)[C@H](NC(=O)c1ccc2sc(Cl)c(C)c2c1OCc1ccc(C(F)(F)F)cc1)C(=O)O [Compound 34-3] | 0.406 µM | 222% | A (“A” refers to AUC @10 μM > 6)
5 | CCC(C)(C)[C@H](NC(=O)c1ccc2sc(CCC(C)C)cc2c1OCc1ccc(C(F)(F)F)cc1)C(=O)O [Compound 33-16, (2S)-2-(2-isopentyl-4-((4-(trifluoromethyl)benzyl)oxy)-benzo[b]thiophene-5-carboxamido)-3,3-dimethylpentanoic acid] | 0.34 µM | 218% | B (“B” refers to AUC @10 μM between 4-6)
6 | Cc1c(Cl)sc2ccc(C(=O)N[C@H](C(=O)O)C(C)(C)C)c(OCc3ccc(OC(F)(F)F)cc3)c12 [Compound 34-4] | 0.281 µM | 159% | A (“A” refers to AUC @10 μM > 6)
7 | CCC(C)(C)[C@H](NC(=O)c1ccc2sc(Cl)cc2c1OCc1ccc(C(F)(F)F)cc1)C(=O)O [Compound 33-6, (2S)-2-(2-chloro-4-((4-(trifluoromethyl)benzyl)oxy)-benzo[b]thiophene-5-carboxamido)-3,3-dimethylpentanoic acid] | 0.5 µM | 279% | A (“A” refers to AUC @10 μM > 6)
8 | Cc1cc2ccc(C(=O)N[C@H](C(=O)O)C(C)(C)C)c(OCc3ccc(C(F)(F)F)cc3)c2s1 [Compound 33-11, (2S)-3,3-dimethyl-2-(2-methyl-7-((4-(trifluoromethyl)benzyl)oxy)-benzo[b]thiophene-6-carboxamido)butanoic acid] | 0.474 µM | 187% | B (“B” refers to AUC @10 μM between 4-6)
9 | CC(C)CCc1cc2c(OCc3ccc(C(F)(F)F)cc3)c(C(=O)N[C@H](C(=O)O)C(C)(C)C)ccc2s1 [Compound 33-2, (2S)-2-[[2-isopentyl-4-[[4-(trifluoromethyl)phenyl]methoxy]benzothiophene-5-carbonyl]amino]-3,3-dimethyl-butanoic acid] | 0.441 µM | 216% | B (“B” refers to AUC @10 μM between 4-6)
10 | CC(C)(C)[C@H](NC(=O)c1ccc2sccc2c1OCC1CCC(F)(F)CC1)C(=O)O [Compound 32-7, (2S)-2-(4-((4,4-difluorocyclohexyl)methoxy)-benzo[b]thiophene-5-carboxamido)-3,3-dimethylbutanoic acid] | 6.89 µM | 127% | C (“C” refers to AUC @10 μM < 4)
11 | CC(C)(C)[C@H](NC(=O)c1ccc2sccc2c1OCc1nc2ccccc2s1)C(=O)O [Compound 32-13, (2S)-2-(4-(benzo[d]thiazol-2-ylmethoxy)-benzo[b]thiophene-5-carboxamido)-3,3-dimethylbutanoic acid] | 4.12 µM | 143% | C (“C” refers to AUC @10 μM < 4)
12 | CCC(C)(C)[C@H](NC(=O)c1ccc2sc(C)c(Cl)c2c1OCc1ccc(OC(F)(F)F)cc1)C(=O)O [Compound 33-9, (2S)-2-(3-chloro-2-methyl-4-((4-(trifluoromethoxy)benzyl)oxy)-benzo[b]thiophene-5-carboxamido)-3,3-dimethylpentanoic acid] | 1.13 µM | 250% | A (“A” refers to AUC @10 μM > 6)
13 | CCC(C)(C)[C@H](NC(=O)c1ccc2sc(C)cc2c1OCc1ccc(C(F)(F)F)cc1)C(=O)O [Compound 33-24, (2S)-3,3-dimethyl-2-(2-methyl-4-((4-(trifluoromethyl)benzyl)oxy)-benzo[b]thiophene-5-carboxamido)pentanoic acid] | 0.412 µM | 270% | A (“A” refers to AUC @10 μM > 6)
14 | Cc1c(Cl)sc2ccc(C(=O)N[C@H](C(=O)O)C(C)(C)C)c(OCc3ccc(C(F)(F)F)cc3)c12 [Compound 35-1, (2S)-2-[[2-chloro-3-methyl-4-[[4-(trifluoromethyl)phenyl]methoxy]-benzothiophene-5-carbonyl]amino]-3,3-dimethyl-butanoic acid] | 0.618 µM | 151% | A (“A” refers to AUC @10 μM > 6)
15 | CC1(C(NC(=O)c2ccc3sccc3c2OCc2ccc(OC(F)(F)F)cc2)C(=O)O)CCCCC1 (stereo not drawn) [Compound 32-6, 2-(1-methylcyclohexyl)-2-(4-((4-(trifluoromethoxy)benzyl)oxy)-benzo[b]thiophene-5-carboxamido)acetic acid] | 3.3 µM | 142% | C (“C” refers to AUC @10 μM < 4)
